Results taken from patent US20060013866A1, “Transdermal drug delivery formulations with optimal amounts of vasodilators therein” (priority 2004, published 2006).

What was measured:
Type in all cases: in vivo
[1] = Topical ibuprofen vehicle with tolazoline applied to rabbits, ibuprofen in plasma over three hours; details: 150 mg sodium salt-ibuprofen
Procedure: (§1) Test formulations containing 15% ibuprofen- sodium salt, 5% oleic acid, 10% menthol, 5% propylene glycol, 10% dimethylacetamide, 1% decylmethylsulfoxide, 1% u-care, varying amounts of tolazoline ranging from 0-0.1%, and 52.9-53% deionized water were each blended in a beaker with a mechanical mixer and heated to 40° C. for 30 minutes until clear, then cooled to room temperature.
(§2) 150 mg of sodium salt-ibuprofen was formulated with the above lipid-based vehicle formulatiosn containing increasing amounts of the vasodilator tolazoline. The Ibuprofen vehicle was topically applied to rabbits and blood samples were taken over a three-hour period. Plasma was prepared and analyzed for the amount of ibuprofen present in the blood. The data represents the integrated value of ibuprofen concentration in the blood for the three hour time period for each concentration of tolazoline.

[2] = Topical ibuprofen vehicle with tocopherol nicotinate applied to rabbits, ibuprofen in plasma over three hours
Procedure: as §1, with “ibuprofen-sodium” for “ibuprofen- sodium”, “tocopherol nicotinate in the range of 0-1%,” for “tolazoline ranging from 0-0.1%,”, “52-53%” for “52.9-53%”
as §2, with “with a 1-gram dose of” for “with”, “formulations” for “formulatiosn”, “containing the” for “containing”, “tocopherol nicotinate.” for “tolazoline.”

[3] = Topical ibuprofen vehicle with papaverine applied to rabbits, ibuprofen in plasma over three hours; details: 150 mg sodium salt-ibuprofen
Procedure: as §1, with “ibuprofen-sodium” for “ibuprofen- sodium”, “papaverine” for “tolazoline”, “0-1%,” for “0-0.1%,”, “52-53%” for “52.9-53%”
as §2, with “papaverine.” for “tolazoline.”

[4] = Maximal blood flow stimulated by vasodilator, laser Doppler perfusion imager
From the text: The present invention also relates to the methods needed to obtain the optimal transdermal delivery of drugs as a function of enhanced delivery resulting from the presence of vasodilator chemicals relates to the topical application of therapeutic or diagnostic agents for the systemic or localized distribution of therapeutic or diagnostic agents for the purpose of treating or detecting diseases and medical conditions. The topically applied agents may be administered at different locations on the human body to achieve access to the circulatory system. The inclusion of chemical vasodilator facilitates the transportation of the therapeutic and diagnostic agents. Chemical vasodilators act through a mechanism-specific basis resulting in a stimulation or inhibition of the uptake of the therapeutic or diagnostic agents. […] Transdermal delivery of the drug molecule as a function of the vasodilator is evaluated in a living suitable animal model or human test subject, topically applying the test formulations, which contain varying amounts of vasodilator. […] Effective transdermal drug delivery is measured by determining the amount of drug present in the blood plasma as a function of time following the single application. […]
Maximal blood flow stimulated by the vasodilator tolazoline was measured using a laser Doppler perfusion imager.

## CC(C)Cc1ccc(C(C)C(=O)O)cc1 (centres unmarked) [Ibuprofen, ibuprofen]
[1]; Control (no tolazoline)
  integrated value of ibuprofen concentration in the blood (0-3 hr): 1030 ng·h/mL
[1]; tolazoline 0.0010%
  integrated value of ibuprofen concentration in the blood (0-3 hr): 3900 ng·h/mL
[1]; tolazoline 0.0050%
  integrated value of ibuprofen concentration in the blood (0-3 hr): 5240 ng·h/mL
[1]; tolazoline 0.0100%
  integrated value of ibuprofen concentration in the blood (0-3 hr): 5660 ng·h/mL
[1]; tolazoline 0.0500%
  integrated value of ibuprofen concentration in the blood (0-3 hr): 3530 ng·h/mL
[1]; tolazoline 0.100%
  integrated value of ibuprofen concentration in the blood (0-3 hr): 4530 ng·h/mL
[2]; 150 mg sodium salt-ibuprofen in 1-gram dose, Control (no tocopherol nicotinate)
  integrated value of ibuprofen concentration in the blood (0-3 hr): 1030 ng·h/mL
[2]; 150 mg sodium salt-ibuprofen, tocopherol nicotinate 0.00010%
  integrated value of ibuprofen concentration in the blood (0-3 hr): 3980 ng·h/mL
[2]; 150 mg sodium salt-ibuprofen, tocopherol nicotinate 0.00025%
  integrated value of ibuprofen concentration in the blood (0-3 hr): 9480 ng·h/mL
[2]; 150 mg sodium salt-ibuprofen, tocopherol nicotinate 0.00050%
  integrated value of ibuprofen concentration in the blood (0-3 hr): 3120 ng·h/mL
[2]; 150 mg sodium salt-ibuprofen, tocopherol nicotinate 0.0010%
  integrated value of ibuprofen concentration in the blood (0-3 hr): 5080 ng·h/mL
[2]; 150 mg sodium salt-ibuprofen, tocopherol nicotinate 0.0100%
  integrated value of ibuprofen concentration in the blood (0-3 hr): 5840 ng·h/mL
[2]; 150 mg sodium salt-ibuprofen, tocopherol nicotinate 0.100%
  integrated value of ibuprofen concentration in the blood (0-3 hr): 4300 ng·h/mL
[2]; 150 mg sodium salt-ibuprofen, tocopherol nicotinate 1.000%
  integrated value of ibuprofen concentration in the blood (0-3 hr): 4400 ng·h/mL
[3]; Control (no papaverine)
  integrated value of ibuprofen concentration in the blood (0-3 hr): 1030 ng·h/mL
[3]; papaverine 0.00010%
  integrated value of ibuprofen concentration in the blood (0-3 hr): 5120 ng·h/mL
[3]; papaverine 0.00025%
  integrated value of ibuprofen concentration in the blood (0-3 hr): 4470 ng·h/mL
[3]; papaverine 0.00050%
  integrated value of ibuprofen concentration in the blood (0-3 hr): 8370 ng·h/mL
[3]; papaverine 0.0010%
  integrated value of ibuprofen concentration in the blood (0-3 hr): 7620 ng·h/mL
[3]; papaverine 0.0100%
  integrated value of ibuprofen concentration in the blood (0-3 hr): 5720 ng·h/mL
[3]; papaverine 0.100%
  integrated value of ibuprofen concentration in the blood (0-3 hr): 4230 ng·h/mL
[3]; papaverine 1.000%
  integrated value of ibuprofen concentration in the blood (0-3 hr): 6160 ng·h/mL

## c1ccc(CC2=NCCN2)cc1 [tolazoline]
[4]
  concentration of tolazoline at which the maximum blood flow was achieved: 0.5%
